Test results taken from ChEMBL document CHEMBL6177981, “Bardoxolone Derivatives as Novel Pseudo-Natural Necroptosis Inhibitors by Destabilizing HSP90 Client Proteins” (J Med Chem, 2025).
pEC50: −log10 of the molar value. Activity calls are given as the source filed them. The rule behind the calls is not given here.

Columns and labels:
[1] = system: HT-29; assay: Anti-necroptotic activity in TSZ-induced human HT-29 cells assessed as increase in cell viability preincubated with Z-VAD-FMK and SM164 for 30 mins followed by TNFalpha stimulation for 12 hrs and measured after compound addition by CellTiter-Lumi luminescent cell viability assay; assay type: functional, cell-based
[2] = system: L929; assay: Anti-necroptotic activity in TZ-induced mouse L929 cells assessed as increase in cell viability preincubated with Z-VAD-FMK followed by mTNFalpha stimulation for 4 hrs and measured after compound addition by CellTiter-Lumi luminescent cell viability assay; assay type: functional, cell-based
[3] = system: L929; assay: Anti-necroptotic activity in TZ-induced mouse L929 cells assessed as protection against cell death at 10 uM measured within 5 hrs by Live-cell super-resolution panoramic microscopic analysis; assay type: functional, cell-based
[4] = target: Receptor-interacting serine/threonine-protein kinase 3 (Homo sapiens) (UniProt Q9Y572); assay: Inhibition of RIPK3 phosphorylation at S227 residue in TSZ-induced human HT-29 cells at 10 uM preincubated with compound followed by Z-VAD-FMK, SM164 and TNFalpha stimulation and measured after 6 hrs by Western blot analysis; assay type: cell-based
Chain of Receptor-interacting serine/threonine-protein kinase 3 (Homo sapiens) (Q9Y572 whole entry, looked up, the tested form may be a part): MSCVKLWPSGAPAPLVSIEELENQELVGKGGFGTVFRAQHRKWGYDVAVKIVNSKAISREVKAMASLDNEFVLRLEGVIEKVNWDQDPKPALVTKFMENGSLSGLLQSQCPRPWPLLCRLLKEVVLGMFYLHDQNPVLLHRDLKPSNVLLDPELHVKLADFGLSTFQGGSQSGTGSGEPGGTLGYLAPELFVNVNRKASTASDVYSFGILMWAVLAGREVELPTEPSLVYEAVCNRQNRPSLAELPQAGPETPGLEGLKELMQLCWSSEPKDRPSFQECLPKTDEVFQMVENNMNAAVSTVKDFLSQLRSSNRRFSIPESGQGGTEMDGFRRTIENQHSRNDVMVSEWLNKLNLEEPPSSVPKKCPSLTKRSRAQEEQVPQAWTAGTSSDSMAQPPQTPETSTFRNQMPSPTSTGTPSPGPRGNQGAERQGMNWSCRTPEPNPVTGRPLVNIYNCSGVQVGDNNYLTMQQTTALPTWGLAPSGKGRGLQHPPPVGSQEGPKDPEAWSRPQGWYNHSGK

[5] = target: T1, Mixed lineage kinase domain-like protein (Homo sapiens) (UniProt Q8NB16); assay: Inhibition of MLKL phosphorylation at S358 residue in TSZ-induced human HT-29 cells at 10 uM preincubated with compound followed by Z-VAD-FMK, SM164 and TNFalpha stimulation and measured after 6 hrs by Western blot analysis; assay type: cell-based
T1 sequence (whole entry): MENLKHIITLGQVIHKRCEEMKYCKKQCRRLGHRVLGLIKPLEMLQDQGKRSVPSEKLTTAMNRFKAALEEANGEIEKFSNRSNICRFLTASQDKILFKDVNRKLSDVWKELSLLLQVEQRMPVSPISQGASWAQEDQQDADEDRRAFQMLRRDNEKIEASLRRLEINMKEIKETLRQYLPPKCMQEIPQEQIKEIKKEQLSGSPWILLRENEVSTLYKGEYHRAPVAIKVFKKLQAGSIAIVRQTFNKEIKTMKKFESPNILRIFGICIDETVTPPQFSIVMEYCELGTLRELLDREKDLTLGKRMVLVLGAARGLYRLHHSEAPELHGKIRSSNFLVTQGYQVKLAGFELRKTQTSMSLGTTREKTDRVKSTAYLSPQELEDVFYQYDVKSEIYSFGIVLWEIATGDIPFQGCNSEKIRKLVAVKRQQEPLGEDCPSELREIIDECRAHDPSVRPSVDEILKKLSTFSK

[6] = target: Heat shock protein HSP90 (Homo sapiens) (UniProt P07900+P08238); assay: Inhibition of HSP90 in TSZ-induced human HT-29 cells assessed as reduction in EGFR protein level at 10 uM preincubated with compound followed by Z-VAD-FMK, SM164 and TNFalpha stimulation and measured after 6 hrs by Western blot analysis; assay type: cell-based
[7] = target: T2, Receptor-interacting serine/threonine-protein kinase 1 (Homo sapiens) (UniProt Q13546); assay: Inhibition of RIPK1 phosphorylation at S166 residue in TSZ-induced human HT-29 cells at 10 uM preincubated with compound followed by Z-VAD-FMK, SM164 and TNFalpha stimulation and measured after 6 hrs by Western blot analysis; assay type: cell-based
T2 sequence (whole entry): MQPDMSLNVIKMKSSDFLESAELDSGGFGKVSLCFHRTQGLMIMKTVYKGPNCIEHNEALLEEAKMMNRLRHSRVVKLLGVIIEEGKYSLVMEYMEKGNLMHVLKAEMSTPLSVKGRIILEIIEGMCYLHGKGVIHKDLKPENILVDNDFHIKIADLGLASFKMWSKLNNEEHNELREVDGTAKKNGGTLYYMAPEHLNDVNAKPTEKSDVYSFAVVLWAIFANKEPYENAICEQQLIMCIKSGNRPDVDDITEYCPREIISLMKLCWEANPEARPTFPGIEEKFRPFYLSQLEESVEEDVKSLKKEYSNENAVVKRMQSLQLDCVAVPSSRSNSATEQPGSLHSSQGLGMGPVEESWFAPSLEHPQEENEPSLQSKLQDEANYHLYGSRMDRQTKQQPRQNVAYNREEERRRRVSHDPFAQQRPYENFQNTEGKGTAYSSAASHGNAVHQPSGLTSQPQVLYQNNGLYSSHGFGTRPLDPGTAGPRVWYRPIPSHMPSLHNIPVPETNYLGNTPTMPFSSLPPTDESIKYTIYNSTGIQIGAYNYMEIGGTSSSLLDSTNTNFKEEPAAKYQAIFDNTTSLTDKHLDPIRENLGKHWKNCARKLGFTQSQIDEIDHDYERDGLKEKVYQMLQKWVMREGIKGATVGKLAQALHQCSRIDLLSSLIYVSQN

[8] = system: RAW264.7; assay: Anti-necroptotic activity in LZ-induced mouse RAW264.7 cells assessed as increase in cell viability preincubated with compound followed by LPS and Z-VAD-FMK stimulation and measured after 16 hrs by CellTiter-Lumi luminescent cell viability assay; assay type: functional, cell-based
[9] = system: HT-29; assay: Effect on RIPK1 protein level in human HT-29 cells at 10 microg/ml incubated for 9 hrs by Western blot analysis; assay type: functional, cell-based; conditions: dose 10.0 µg/ml
[10] = system: HT-29; assay: Effect on MLKL protein level in human HT-29 cells at 10 microg/ml incubated for 9 hrs by Western blot analysis; assay type: functional, cell-based; conditions: dose 10.0 µg/ml
[11] = system: HT-29; assay: Effect on RIPK3 protein level in human HT-29 cells at 10 microg/ml incubated for 9 hrs by Western blot analysis; assay type: functional, cell-based; conditions: dose 10.0 µg/ml

SMILES | pEC50 [1] | pEC50 [2] | also measured
CC1(C)CC[C@]2(C(=O)O)CC[C@]3(C)[C@H](C(=O)C=C4[C@@]5(C)C=C(C(N)=O)C(=O)C(C)(C)[C@@H]5CC[C@]43C)[C@@H]2C1 | 5.66 | < 5.00 | –
CC1(C)CC[C@]2(C(=O)Nc3cnc4ccccc4n3)CC[C@]3(C)[C@H](C(=O)C=C4[C@@]5(C)C=C(C#N)C(=O)C(C)(C)[C@@H]5CC[C@]43C)[C@@H]2C1 | 5.62 | < 5.00 | –
CC1(C)CC[C@]2(C(=O)N3CCC(c4ccccc4)C3)CC[C@]3(C)[C@H](C(=O)C=C4[C@@]5(C)C=C(C#N)C(=O)C(C)(C)[C@@H]5CC[C@]43C)[C@@H]2C1 (some centres not stated) | 5.42 | < 5.00 | –
CC1(C)CC[C@]2(C(=O)O)CC[C@]3(C)[C@H](C(=O)C=C4[C@@]5(C)C=C(C#N)C(=O)C(C)(C)[C@@H]5CC[C@]43C)[C@@H]2C1 [BARDOXOLONE] | 5.60 | < 5.00 | Activity [3]: inactive; inhibition [4]: inactive; inhibition [5]: inactive; inhibition [6]: Active; inhibition [7]: inactive
CC1(C)CC[C@]2(C(=O)n3nnc4ccccc43)CC[C@]3(C)[C@H](C(=O)C=C4[C@@]5(C)C=C(C#N)C(=O)C(C)(C)[C@@H]5CC[C@]43C)[C@@H]2C1 | 5.00 | < 5.00 | –
CC1(C)CC[C@]2(C(=O)Nc3ccc4ncsc4c3)CC[C@]3(C)[C@H](C(=O)C=C4[C@@]5(C)C=C(C#N)C(=O)C(C)(C)[C@@H]5CC[C@]43C)[C@@H]2C1 | 5.45 | < 5.00 | –
CC1(C)CC[C@]2(C(=O)Nc3ccc4ncoc4c3)CC[C@]3(C)[C@H](C(=O)C=C4[C@@]5(C)C=C(C#N)C(=O)C(C)(C)[C@@H]5CC[C@]43C)[C@@H]2C1 | 5.70 | 5.55 | Activity [8]: Dose-dependent-effect
CC1(C)CC[C@]2(C(=O)Nc3ccc4sccc4c3)CC[C@]3(C)[C@H](C(=O)C=C4[C@@]5(C)C=C(C#N)C(=O)C(C)(C)[C@@H]5CC[C@]43C)[C@@H]2C1 | 5.31 | < 5.00 | –
CC1(C)CC[C@]2(C(=O)n3cnc4ccccc43)CC[C@]3(C)[C@H](C(=O)C=C4[C@@]5(C)C=C(C#N)C(=O)C(C)(C)[C@@H]5CC[C@]43C)[C@@H]2C1 | 5.63 | < 5.00 | –
CC1(C)CC[C@]2(C(=O)Nc3ccc4sncc4c3)CC[C@]3(C)[C@H](C(=O)C=C4[C@@]5(C)C=C(C#N)C(=O)C(C)(C)[C@@H]5CC[C@]43C)[C@@H]2C1 | 5.63 | < 5.00 | –
CC1(C)CC[C@]2(C(=O)Nc3nsc4ccccc34)CC[C@]3(C)[C@H](C(=O)C=C4[C@@]5(C)C=C(C#N)C(=O)C(C)(C)[C@@H]5CC[C@]43C)[C@@H]2C1 | 5.40 | < 5.00 | –
Cn1c(NC(=O)[C@]23CCC(C)(C)C[C@H]2[C@H]2C(=O)C=C4[C@@]5(C)C=C(C#N)C(=O)C(C)(C)[C@@H]5CC[C@@]4(C)[C@]2(C)CC3)nc2ccccc21 | 5.40 | < 5.00 | –
CC1(C)CC[C@]2(C(=O)Nc3ccc4occc4c3)CC[C@]3(C)[C@H](C(=O)C=C4[C@@]5(C)C=C(C#N)C(=O)C(C)(C)[C@@H]5CC[C@]43C)[C@@H]2C1 | 5.88 | < 5.00 | –
CC1(C)CC[C@]2(C(=O)Nc3ccc4[nH]ccc4c3)CC[C@]3(C)[C@H](C(=O)C=C4[C@@]5(C)C=C(C#N)C(=O)C(C)(C)[C@@H]5CC[C@]43C)[C@@H]2C1 | 5.39 | < 5.00 | –
CC1(C)CC[C@]2(C(=O)N3CCc4ccccc43)CC[C@]3(C)[C@H](C(=O)C=C4[C@@]5(C)C=C(C#N)C(=O)C(C)(C)[C@@H]5CC[C@]43C)[C@@H]2C1 | < 5.00 | < 5.00 | –
CC1(C)CC[C@]2(C(=O)Nc3ccc4c(c3)OCO4)CC[C@]3(C)[C@H](C(=O)C=C4[C@@]5(C)C=C(C#N)C(=O)C(C)(C)[C@@H]5CC[C@]43C)[C@@H]2C1 | 6.05 | < 5.00 | –
CC1(C)CC[C@]2(C(=O)O)[C@H](O)C[C@]3(C)C(=CC[C@@H]4[C@@]5(C)CC[C@H](O)C(C)(C)[C@@H]5CC[C@]43C)[C@@H]2C1 | < 5.00 | < 5.00 | –
CC1(C)CC[C@]2(C(=O)N3Cc4ccccc4C3)CC[C@]3(C)[C@H](C(=O)C=C4[C@@]5(C)C=C(C#N)C(=O)C(C)(C)[C@@H]5CC[C@]43C)[C@@H]2C1 | 5.78 | < 5.00 | –
CC1(C)CC[C@]2(C(=O)Nc3ccc4scnc4c3)CC[C@]3(C)[C@H](C(=O)C=C4[C@@]5(C)C=C(C#N)C(=O)C(C)(C)[C@@H]5CC[C@]43C)[C@@H]2C1 | 5.86 | 5.40 | Activity [8]: Dose-dependent-effect
CC1(C)CC[C@]2(C(=O)n3ncc4ccccc43)CC[C@]3(C)[C@H](C(=O)C=C4[C@@]5(C)C=C(C#N)C(=O)C(C)(C)[C@@H]5CC[C@]43C)[C@@H]2C1 | < 5.00 | < 5.00 | –
COC(=O)[C@]12CCC(C)(C)C[C@H]1[C@H]1C(=O)C=C3[C@@]4(C)C5NC5C(=O)C(C)(C)[C@@H]4CC[C@@]3(C)[C@]1(C)CC2 (some centres not stated) | < 5.00 | < 5.00 | –
C[C@@H]1C[C@@H]([C@H](O)CC2CC(=O)NC(=O)C2)C(=O)[C@@H](C)C1 | – | – | Activity [9]: inactive; Activity [10]: inactive; Activity [11]: inactive
CC1(C)CC[C@]2(C(=O)O)CC[C@]3(C)C(=CC[C@@H]4[C@@]5(C)CC[C@H](O)C(C)(C)[C@@H]5CC[C@]43C)[C@@H]2C1 [OLEANOLIC_ACID] | < 5.00 | < 5.00 | –
CC1(C)CC[C@]2(C(=O)Nc3nc4ccccc4s3)CC[C@]3(C)[C@H](C(=O)C=C4[C@@]5(C)C=C(C#N)C(=O)C(C)(C)[C@@H]5CC[C@]43C)[C@@H]2C1 | 5.42 | < 5.00 | –
CC1(C)CC[C@]2(C(=O)Nc3ccc4ccccc4c3)CC[C@]3(C)[C@H](C(=O)C=C4[C@@]5(C)C=C(C#N)C(=O)C(C)(C)[C@@H]5CC[C@]43C)[C@@H]2C1 | 5.02 | < 5.00 | –
CC1(C)CC[C@]2(C(=O)NC3(c4ccccc4)CC3)CC[C@]3(C)[C@H](C(=O)C=C4[C@@]5(C)C=C(C#N)C(=O)C(C)(C)[C@@H]5CC[C@]43C)[C@@H]2C1 | 5.68 | 5.32 | Activity [8]: Dose-dependent-effect
COC(=O)[C@]12CCC(C)(C)C[C@H]1[C@H]1C(=O)C=C3[C@@]4(C)C5C(C(=O)C(C)(C)[C@@H]4CC[C@@]3(C)[C@]1(C)CC2)N5CC#N (some centres not stated) | < 5.00 | < 5.00 | –
CC1(C)CC[C@]2(C(=O)Nc3ccc4oncc4c3)CC[C@]3(C)[C@H](C(=O)C=C4[C@@]5(C)C=C(C#N)C(=O)C(C)(C)[C@@H]5CC[C@]43C)[C@@H]2C1 | 5.48 | < 5.00 | –
CC1(C)CC[C@]2(C(=O)N3CCC(c4ccccc4)CC3)CC[C@]3(C)[C@H](C(=O)C=C4[C@@]5(C)C=C(C#N)C(=O)C(C)(C)[C@@H]5CC[C@]43C)[C@@H]2C1 | 5.24 | < 5.00 | –
